Here are results for three compounds from publication PMC9258321, “Structure-guided design of CPPC-paired disulfide-rich peptide libraries for ligand and drug discovery” (Chemical Science, 2022).

Assay [1] concerns CD28 expressed on the surface of HEK293T cells. The assay can be described thus: Laser confocal cell imaging, labeling CD28 on HEK293T cells. Type of assay: cell-based. To be noted: HEK293T cells transfected with mCherry-CD28 vs mCherry control; 1 μM peptide in DMEM, 30 min, washed; confocal colocalization. Here is the method:
Finally, we examined the specific binding capability of drp8 to CD28 expressed on the surface of the cells. HEK293T cells transfected with a plasmid expressing the extracellular domain of CD28 fused with an extracellular-targeting signaling sequence, a fluorescent mCherry tag, and a transmembrane domain was constructed for the experiments. Briefly, the transfected cells were incubated with the fluorescein-labeled drp8 for 30 min, followed by washing with culture media to remove the unbound peptide. Confocal fluorescence images were then recorded (Fig. 5d), showing the colocalization of fluorescence from the mCherry tag and the labeled peptide.
Surface plasmon resonance (SPR) assay
The affinity of peptides to Keap1 was measured using Biacore T200 (GE healthcare) at 25℃. […]
NMR samples were dissolved in 80% perdeuterated acetonitrile and 20% H2O for drp1, 75% perdeu-terated acetonitrile and […] for drp2-a, 60% perdeuterated acetonitrile and 40% H2O for drp8, 50% perdeuterated acetonitrile and 50% H2O for drp3 and drp6, 40% perdeuterated acetonitrile and 60% H2O for drp2-b and drp4 (The solution conditions depend on the dispersion of cross -peaks). […] Two dimensional (2D) 1H, 15N/13C HSQC spectra were recorded to obtain chemical shifts of heavy atoms in backbone and side-chains. […]

Assay [2] has as its target T1, CD28 (Homo sapiens, UniProt P10747).
T1 construct: purchased Sino Biological 11524-HCCH
The assay can be described thus: FP assay: CD80 added to premixed oxidized FITC-drp8 and CD28. Conditions: CD80 50-500 nM added to 25 nM oxidized FITC-drp8 and 100 nM CD28, PBS pH 7.4, 20 min room temperature, Fig. S22. The assay is classed as binding. Here is the method: (§1) min incubation at room temperature, the fluorescence anisotropies were measured using a plate reader (Eex= 485 nm, Eem=535 nm). All of the measurements were recorded in triplicate. In the fluorescence polarization assay s measuring the binding of reduced FITC-drp8 to CD28 and the binding of oxidized FITC-drp8 to CTLA-4, the fluorescence anisotrop ies were recorded in the same way as described above.
(§2) Dissociation constants ( KD) were determined by nonlinear regression analysis of anisotrop ies versus the concentrations of the protein using the following equation: […]
(§3) Y = A1 + (A2 − A1) × { 2×C } (1)
(§4) X: the concentration of protein, Y: the measured fluorescence anisotropy, C: the concentration of fluores-cent peptide, A1: the bottom plateaus of anisotropy, A2: the anisotropy signal in the presence of saturating concentrations of CD28, KD: the dissociation constant.
(§5) (b) Competition fluorescence polarization assay. The binding of drp8 to CD28 was measured by adding dilutions of drp8 to premixed oxidized FITC-drp8 and CD28 in PBS (pH 7.4). […] After 10 min incubation at room temperature, the plate was read using a plate reader (Eex= 485 nm, Eem = 535 nm). In the competition fluorescence polarization assay measuring the binding of drp1, drp7 and drp9 to CD28, the fluorescence anisotropies were recorded in the same way as described above. […]

The subject of another assay is CTLA-4. Put plainly: Fluorescence polarization binding assay to CTLA-4. Conditions: FP assay, oxidized fluorescein-labeled peptide; Fig. S23. Here is the method: as §1, §2, §3, §4, §5
The target of assay [3] is T1, CD28. Put plainly: Competition fluorescence polarization assay with oxidized FITC-drp8 as probe. Type of assay: binding. Conditions: FP competition with oxidized FITC-drp8; negative control. Here is the method: as §1, §2, §3, §4, §5

Bridge positions count the residues as written; N and C are the ends. Peptide text beside a SMILES is read from it. * marks the point of attachment. FITC = O=C1OC2(c3ccc(O)cc3Oc3cc(O)ccc32)c2ccc(NC(=S)*)cc21; βAla = NCCC(=O)O

T1 sequence (P10747 19-220): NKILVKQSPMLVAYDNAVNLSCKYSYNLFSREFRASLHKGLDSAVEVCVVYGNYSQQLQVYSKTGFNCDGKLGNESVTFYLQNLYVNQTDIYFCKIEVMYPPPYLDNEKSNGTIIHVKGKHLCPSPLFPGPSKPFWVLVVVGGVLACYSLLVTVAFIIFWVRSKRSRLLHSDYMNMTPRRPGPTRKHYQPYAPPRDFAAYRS

As for `CC(C)C[C@@H]1NC(=O)CNC(=O)[C@H](CCC(=O)O)NC(=O)[C@@H]2CSSC[C@H](NC(=O)[C@H](CC(N)=O)NC(=O)[C@H](CC(N)=O)NC1=O)C(=O)N[C@@H](Cc1c[nH]c3ccccc13)C(=O)N[C@@H](Cc1ccccc1)C(=O)N[C@@H](C(C)C)C(=O)N[C@@H](CCC(=O)O)C(=O)N[C@@H](C)C(=O)N[C@H]1CSSC[C@H](NC(=O)CNC(=O)CCNC(=S)Nc3ccc4c(c3)C(=O)OC43c4ccc(O)cc4Oc4cc(O)ccc43)C(=O)N3CCC[C@H]3C(=O)N3CCC[C@H]3C(=O)N[C@@H](CSSC[C@@H](C(N)=O)NC(=O)[C@@H]3CCCN3C(=O)[C@@H]3CCCN3C1=O)C(=O)N1CCC[C@H]1C(=O)N[C@@H](CCCNC(=N)N)C(=O)N[C@@H](CCC(=O)O)C(=O)N[C@@H](Cc1c[nH]cn1)C(=O)N[C@@H](CCC(=O)O)C(=O)N[C@@H](CC(C)C)C(=O)N[C@@H](C(C)C)C(=O)N[C@@H](C)C(=O)N[C@@H](C(C)C)C(=O)N1CCC[C@H]1C(=O)N2` [FITC-drp8] ({FITC-βAla}-GCPPCPREHELVAVPCEGLNNCWFVEACPPC-NH2; disulfide 2-28, 5-31, 16-22), the “binding to CD28 on the cell surface (in words)” value in assay [1] is recorded as “can specifically bind with CD28 on the live cell surface”.

In the case of `CC(C)C[C@@H]1NC(=O)CNC(=O)[C@H](CCC(=O)O)NC(=O)[C@@H]2CSSC[C@H](NC(=O)[C@H](CC(N)=O)NC(=O)[C@H](CC(N)=O)NC1=O)C(=O)N[C@@H](Cc1c[nH]c3ccccc13)C(=O)N[C@@H](Cc1ccccc1)C(=O)N[C@@H](C(C)C)C(=O)N[C@@H](CCC(=O)O)C(=O)N[C@@H](C)C(=O)N[C@H]1CSSC[C@H](NC(=O)CN)C(=O)N3CCC[C@H]3C(=O)N3CCC[C@H]3C(=O)N[C@@H](CSSC[C@@H](C(N)=O)NC(=O)[C@@H]3CCCN3C(=O)[C@@H]3CCCN3C1=O)C(=O)N1CCC[C@H]1C(=O)N[C@@H](CCCNC(=N)N)C(=O)N[C@@H](CCC(=O)O)C(=O)N[C@@H](Cc1c[nH]cn1)C(=O)N[C@@H](CCC(=O)O)C(=O)N[C@@H](CC(C)C)C(=O)N[C@@H](C(C)C)C(=O)N[C@@H](C)C(=O)N[C@@H](C(C)C)C(=O)N1CCC[C@H]1C(=O)N2` [drp8] (H-GCPPCPREHELVAVPCEGLNNCWFVEACPPC-NH2; disulfide 2-28, 5-31, 16-22), the “competition with CD80 for CD28 (in words)” value at CD28 [2] is “capable of blocking the CD80 and CD28 interaction”. Moreover, in the assay on CTLA-4, the “binding affinity to CTLA4 (in words)” value is “negligible binding affinity”.

On to “H-CPPCHGRPTCDSFTNCWELLTCPPC-NH2 (also: bicyclic or more (positions not given here)) [drp1, template and negative control for CD28]”, for which the “binding to CD28 in competition assay (in words)” value at CD28 [3] is given as “negligibly binds with CD28”.
